# Columns and labels:
# Format in all cases: cell-based, human
# [1] = test system: RIPK1 S320/S166 phosphorylation, cIAP1, cIAP2, cleaved Caspase 3 in LGD stem cells; assay: Western blot of LGD stem cells (RIPK1 phosphorylation, cIAP1/cIAP2, cleaved Caspase 3); conditions: ponatinib 300 nM, 7532N 10 nM, 16 hr per FIG. 42j
# BE stem cells = assay: Survival of Barrett's esophagus (BE) stem cells, high-throughput screen and dose-response
# Excerpt: The present example describes methods used for testing the efficacy of compounds described herein. The selective growth of stem cells of cancers, of their precursor lesions, and of normal and chronically diseased epithelial tissues is described in the references below. In brief, biopsied tissues are reduced to single cell suspensions and plated onto lawns of irradiated 3T3-J2 feeder cells in specialized StemEcho media and libraries of colonies are evident in 7-10 days. Single cell-derived clones are generated by single cell FACS sorting to 384 well plates and wells with individual colonies are expanded, analyzed by molecular genetics, and grown as discrete clones.
# After 2-5 days, the cells are fixed using paraformaldehyde and the human cells are labelled with human-specific antibodies followed by fluorochrome-labelled secondary antibodies. Human cell numbers are quantified via high-throughput imaging technology (CellInsight CX7 LED, Thermo), and data analyzed by Excel.
# To learn more about the relative efficacy of these IAP antagonists in a synthetic lethal combination with ponatinib, we compared their effects in dose-response assays in vitro against BE stem cells. […]
# [2] = test system: cleaved caspase 3 (c-Casp3); assay: Western blot of stem cells exposed to IAP antagonists and ponatinib (cleaved caspase 3); conditions: BE stem cells exposed to IAP antagonist and ponatinib; six-hour exposure; FIG. 42c
# Excerpt: Based on the properties of diverse IAP antagonists in combination with ponatinib towards BE stem cells, synthetic chemistry was employed to expand the repertoire of IAP antagonists available for these studies. A squaramide linker strategy was chosen for generating bivalent IAP antagonists based on its planar structure and separation of the headgroups that contain the peptide […] domains that interact with cIAP1, cIAP2, and XIAPs, and screened them in dose-response assays against BE stem cells in the presence and absence of ponatinib (FIG. 42d).
structure (smiles),measurement,setting,value
CN[C@@H](C)C(=O)N[C@H](C(=O)N1CCC[C@H]1C(=O)N[C@H]1c2ccccc2C[C@H]1OCCOCCNc1c(NCCOCCO[C@@H]2Cc3ccccc3[C@@H]2NC(=O)[C@@H]2CCCN2C(=O)[C@@H](NC(=O)[C@H](C)NC)C2CCCCC2)c(=O)c1=O)C1CCCCC1 [Compound I-1],"RIPK1 phosphorylation, cIAP1/cIAP2 and apoptosis in LGD stem cells, western blot",[1],degradation of cIAP1 and cIAP2 without inducing cleaved Caspase 3
Cc1ccc(C(=O)Nc2ccc(CN3CCN(C)CC3)c(C(F)(F)F)c2)cc1C#Cc1cnc2cccnn12 [ponatinib],Inhibition of BE stem cells,"BE stem cells; eight patient-derived BE stem cells, FIG. 40d",20%
CN[C@@H](C)C(=O)N[C@H](C(=O)N1CCC[C@H]1C(=O)N[C@H]1c2ccccc2C[C@H]1OCC#CC#CCO[C@@H]1Cc2ccccc2[C@@H]1NC(=O)[C@@H]1CCCN1C(=O)[C@@H](NC(=O)[C@H](C)NC)C1CCCCC1)C1CCCCC1 [AZD5582],"Induction of cleaved caspase 3 (c-Casp3), western blot",[2],induced a cleaved caspase 3
Cc1cn(-c2cc(NC(=O)c3ccc(C)c(Nc4nccc(-c5cccnc5)n4)c3)cc(C(F)(F)F)c2)cn1 [nilotinib],Identification in high-throughput screens,BE stem cells; screens against BE and ESO stem cells,not identified in our screens
CN[C@@H](C)C(=O)N[C@H]1CCCC[C@H]2CC[C@@H](C(=O)N[C@@H](c3ccccc3)c3cn(CCCCc4ccc(CCCCn5cc([C@@H](NC(=O)[C@@H]6CC[C@@H]7CCCC[C@H](NC(=O)[C@H](C)NC)C(=O)N76)c6ccccc6)nn5)cc4)nn3)N2C1=O [SM-164],"Induction of cleaved caspase 3 (c-Casp3), western blot",[2],induced a cleaved caspase 3

# Reference: patent US20260060957A1, “COMPOUNDS AND COMPOSITIONS USEFUL FOR TREATMENT OF PROLIFERATIVE DISEASE OR DISORDER” (University of Houston System, priority 2023, published 2026)
